From PMC6630699, “Synthesis and Cytotoxicity Evaluation of DOTA-Conjugates of Ursolic Acid” (Molecules, 2019)
Entries after “also recorded” stand apart in the source; their conditions may differ.

Assays:
[1] = system: FaDu (pharynx squamous cell carcinoma); assay: SRB cytotoxicity assay, FaDu; format: cell-based, human; conditions: for EC50: Homo sapiens, FaDu, SRB assay, 72 h of treatment; for Selectivity index SI FaDu: SI = EC50 (NIH 3T3)/EC50 (FaDu)
Description: (§1) Due to cytotoxicity evaluation, the prepared UA-DOTA conjugates were screened in rhodamine B assays employing a series of human tumor cell lines and non-malignant mouse fibroblasts (NIH 3T3).
(§2) The cell lines used are human cancer cell lines: A2780 (ovarian carcinoma), HT29 (colon adenocarcinoma), MCF-7 (breast adenocarcinoma), A375 (melanoma), FaDu (pharynx squamous cell carcinoma) and non-malignant mouse fibroblasts NIH 3T3; all cell lines were obtained from the Department of Oncology (Martin-Luther-University Halle-Wittenberg). Cultures were maintained as monolayers in RPMI 1640 medium with L-glutamine (Capricorn Scientific GmbH, Ebsdorfergrund, Germany) supplemented with 10% heat inactivated fetal bovine serum (Sigma-Aldrich Chemie GmbH, Steinheim, Germany) and penicillin/streptomycin (Capricorn Scientific GmbH, Ebsdorfergrund, Germany) at 37 °C in a humidified atmosphere with 5% CO2.
(§3) The cytotoxicity of the compounds was evaluated using the sulforhodamine-B (Kiton-Red S, ABCR) micro culture colorimetric assay. Cells were seeded into 96-well plates on day 0 at appropriate cell densities to prevent confluence of the cells during the period of experiment. After 24 h, the cells were treated with six different concentrations (1, 3, 7, 12, 20, and 30 µM) minimum. The final concentration of DMSO/DMF never exceeded 0.5%, which was non-toxic to the cells. After a 72-h treatment, the supernatant medium from the 96-well plates was discarded, the cells were fixed with 10% trichloroacetic acid (TCA) and allowed to rest at 4 °C. After 24 h fixation, the cells were washed in a strip washer and dyed with SRB solution (100 µL, 0.4%, in 1% acetic acid) for about 20 min. After dying, the plates were washed four times with 1% acetic acid to remove the excess of the dye and allowed to air-dry overnight. Tris base solution (200 µL, 10 mM) was added to each well and absorbance was measured at λ = 570 nm using a 96 well plate reader (Tecan Spectra, Crailsheim, Germany). The EC50 values were averaged from three independent experiments performed each in triplicate calculated from semi logarithmic dose response curves applying a non-linear 4P Hills-slope equation (GraphPad Prism5; variables top and bottom were set to 100 and 0, respectively).

A375 (melanoma) = assay: SRB cytotoxicity assay, A375; format: cell-based, human; conditions: for EC50: Homo sapiens, A-375, SRB assay, 72 h of treatment; for Selectivity index SI A375: SI = EC50 (NIH 3T3)/EC50 (A375)
Description: as §1, §2, §3

A375 cells [2] = assay: AO/PI dye exclusion test (fluorescence microscopy); format: cell-based, human
Protocol: Morphological characteristics of cell death were analyzed employing an AO/PI assay using human cancer cell line A375. Approx. 2 × 10^5 cells were seeded in cell culture flasks (25 cm^2), and the cells were allowed to grow up for 24 h. After removing of the used medium, the substance loaded fresh medium was reloaded (or a blank new medium as a control). After 24 h and 48 h, the content of the flask was collected and centrifuged (1200 rpm, 4 °C), the pellet was gently suspended in phosphate-buffered saline (PBS (w/Ca^2+ and Mg^2+), 1 mL) and centrifuged again. The PBS was removed, and the pellet gently suspended in PBS (150 µL) again. The analysis of the cells was performed using a fluorescence microscope after having mixed the cell suspension (10 µL) with a solution of AO/PI (5 µg/mL, 10 µL).

A375 cells [3] = assay: Cell cycle investigations (PI, flow cytometry); format: cell-based, human
Protocol: Approximately 2 × 10^5 cells (A375) were seeded in cell culture flasks (25 cm^2), and the cells were allowed to grow up for 24 h. After removing of the used medium, the substance loaded fresh medium was reloaded (or a blank fresh medium as a control). After 24 h or 48 h, respectively, only the adherent cells were harvested, centrifuged (1200 rpm, 4 °C), and washed twice with PBS ((w/w), 1 mL). The cells were counted and approximately 1 × 10^6 cells were fixed with ethanol (70%, 4 °C, 24 h). After centrifugation (4500 rpm, 4 °C) the cells were washed with PBS ((w/w), 1 mL) and centrifuged. The pellet was resuspended in 1 mL RNAse A containing PI buffer (100µL RNAse (100 mg/mL), 15 µL PI solution (1 mg/mL)) and after incubating for 30 min at room temperature in the dark, cells were analyzed using the Attune® FACS machine; collecting data from the BL-2A channel. Doublet cells were excluded from the measurements by plotting BL-2A against BL-2H. For each cell cycle distribution 20,000 events were collected in technical triplicates, each sample was measured in duplicates. Cell cycle distribution was calculated using ModFitLT™ (Verity Software House, Topsham, ME, USA).

[4] = system: non-malignant mouse fibroblasts NIH 3T3; assay: SRB cytotoxicity assay, NIH 3T3; format: cell-based; conditions: NIH3T3, 72 h of treatment
Description: as §1, §2, §3

[5] = system: HT29 (colon adenocarcinoma); assay: SRB cytotoxicity assay, HT29; format: cell-based, human; conditions: for EC50: Homo sapiens, HT-29, SRB assay, 72 h of treatment; for Selectivity index SI HT29: SI = EC50 (NIH 3T3)/EC50 (HT29)
Description: as §1, §2, §3

[6] = system: A2780 (ovarian carcinoma); assay: SRB cytotoxicity assay, A2780; format: cell-based, human; conditions: for EC50: SRB assay, 72 h of treatment; for Selectivity index SI A2780: SI = EC50 (NIH 3T3)/EC50 (A2780)
Description: as §1, §2, §3

A375 cells [7] = assay: Annexin V-FITC/PI assay (flow cytometry); format: cell-based, human
Protocol: Approximately 2 × 10^5 cells (A375) were seeded in cell culture flasks (25 cm^2), and the cells were allowed to grow up for 24 h. After removing of the used medium, the substance loaded fresh medium was reloaded (or a blank fresh medium as a control). After 24 h and 48 h, the cells were harvested, centrifuged (1200 rpm, 4 °C), and washed twice with PBS (w/Ca^2+ and Mg^2+, 1 mL). The cells were counted and approximately 1∙10^6 cells were washed with Annexin V binding buffer (BioLegend®, San Diego, USA) and treated with propidium iodide solution (3 µL, 1 mg/mL) and Annexin V-FITC (5 µL, BioLegend®, San Diego, CA, USA) for 15 min in the dark at room temperature. After adding Annexin V binding buffer (400 µL) the suspension was analyzed using Attune® FACS machine. After gating for living cells, the data from detectors BL-1A and BL-3A were collected (20,000 events) in technical triplicates. The assay was performed in duplicates; cell distribution was calculated using Attune® Software (ThermoFisher Scientific, Braunschweig, Germany).

[8] = system: MCF-7 (breast adenocarcinoma); assay: SRB cytotoxicity assay, MCF-7; format: cell-based, human; conditions: for EC50: Homo sapiens, MCF7, SRB assay, 72 h of treatment; for Selectivity index SI MCF-7: SI = EC50 (NIH 3T3)/EC50 (MCF-7)
Description: as §1, §2, §3

human tumor cell lines = assay: SRB cytotoxicity assay, statements over the whole cell line panel; format: cell-based; conditions: summary over all tumor cell lines
Description: as §1, §2, §3

Structure (SMILES)	EC50 [1]	Selectivity index SI FaDu [1]	EC50 (A375 (melanoma))	Selectivity index SI A375 (A375 (melanoma))	EC50 [4]	EC50 [5]	Selectivity index SI HT29 [5]	EC50 ([6]; Homo sapiens, A2780, 72 h)	Selectivity index SI A2780 [6]	EC50 [8]	Selectivity index SI MCF-7 [8]	further results
CC(=O)O[C@H]1CC[C@@]2(C)C(CC[C@]3(C)C2CC=C2C4[C@@H](C)[C@H](C)CC[C@]4(C(=O)N4CCN(C(=O)CN5CCN(CC(=O)OC(C)(C)C)CCN(CC(=O)OC(C)(C)C)CCN(CC(=O)OC(C)(C)C)CC5)CC4)CC[C@]23C)C1(C)C (stereo partly drawn) [compound 22, Tri-tert-butyl 2,2’,2’’-[10-[2-[4-(3β-acetyloxy-urs-12-en-28-oyl)piperazin-1-yl]-2-oxoethyl]-1,4,7,10-tetraazacyclododecane-1,4,7-triyl]triacetate]	3700 ± 600 nM	1.24	1500 ± 400 nM	3.07	4600 ± 1000 nM	5.7 ± 0.5 µM	0.81	1700 nM	2.42	4.4 ± 0.7 µM	1.05	fluorescence microscopic images versus control (A375 cells [2]; A375, 3.0 µM, 24 h): no significant differences in comparison to the control; cell morphology in fluorescence microscopic images (A375 cells [2]; A375, 3.0 µM, 48 h): ruptures of the plasma membrane; cell cycle distribution versus control (A375 cells [3]; A375, 3.0 µM, 48 h): G1/G0, G2/M, and S phase were drastically reduced; also recorded: an increased population of cells with reduced DNA content has been observed in the subG1 region; EC50 [6]: 1900 ± 300 nM; density plots versus control (A375 cells [7]; A375, 3.0 µM, 24 h): no significant differences in comparison to the control; annexin V-FITC-positive cells (A375 cells [7]; A375, 3.0 µM, 48 h): 32.9%; apoptotic cells (R4) (A375 cells [7]; A375, 3.0 µM, 48 h): 17.4%; vital cells (R3) (A375 cells [7]; A375, 3.0 µM, 48 h, control 86.0%): 66.3%
CC(=O)O[C@H]1CC[C@@]2(C)C(CC[C@]3(C)C2CC=C2C4[C@@H](C)[C@H](C)CC[C@]4(C(=O)NCCNC(=O)CN4CCN(CC(=O)OC(C)(C)C)CCN(CC(=O)OC(C)(C)C)CCN(CC(=O)OC(C)(C)C)CC4)CC[C@]23C)C1(C)C (stereo partly drawn) [compound 24, Tri-tert-butyl 2,2’,2’’-[10-[2-[2-(3β-acetyloxy-urs-12-en-28-oylamino)ethyl]amino-2-oxoethyl]-1,4,7,10-tetraazacyclododecane-1,4,7-triyl]triacetate]	2000 ± 200 nM	0.70	2000 ± 100 nM	0.70	1400 ± 100 nM	2.3 ± 0.3 µM	0.61	1700 ± 100 nM	0.82	1.8 ± 0.1 µM	0.78	cell morphology in fluorescence microscopic images (A375 cells [2]; A375, 4.0 µM, 24 h): vital cells (green staining) with some of them having ruptured cell membranes; EC50 (human tumor cell lines): < 2500 nM; cell cycle distribution versus control (A375 cells [3]; A375, 4.0 µM, 24 h): decreased number of cells in G1/G0, G2/M, as well as in S phase; also recorded: a large population of cells has been shifted into the subG1 region; annexin V-FITC-positive cells (A375 cells [7]; A375, 4.0 µM, 24 h): 63%; apoptotic cells (R4) (A375 cells [7]; A375, 4.0 µM, 24 h): 51.9%; vital cells (R3) (A375 cells [7]; A375, 4.0 µM, 24 h, control 86.1%): 36.7%
